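Where inhibition never reached the appropriate level, the endpoint shown equals the highest concentration tested. Otherwise, values were interpolated linearly from a five-concentration, 48-hour dose response in 96-well plates. GI50 is the concentration that inhibits growth by half.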 Active and inactive are the calls of the source. Cut-off read from the data, not from the text of the source: active = GI50 up to about 1.1 µM and inactive = higher.

10 compounds from ChEMBL document CHEMBL1201862, “PubChem BioAssay data set” (2004) can be followed below.

Some test systems named below: DMS-114; CAKI-1; SK-MEL-28; A549; M19-MEL; SK-MEL-2; NCI-H226; DMS-273; SNB-19; HCT-15; OVCAR-4; KM-20L2; SNB-78; A498; LXFL 529; XF498.
Assay in all cases: NCI tumour cell line growth inhibition, 48 h

Consider `O=c1c2ccccc2nc(-c2ccc(Br)cc2)n1NC1OC(CO)C(O)C(O)C1O` (stereo not given), for which the GI50 with DMS-114 was 96.6 µM (inactive); with CAKI-1, > 100 µM (inactive); in the experiment on SK-MEL-28 it was > 100 µM (inactive); with A549, > 100 µM (inactive); in the experiment with M19-MEL it was > 100 µM (inactive); in the experiment with SK-MEL-2 it was > 100 µM (inactive). In addition, the GI50 is > 100 µM (inactive) in the experiment on NCI-H226; > 100 µM (inactive) in the experiment on DMS-273; > 100 µM (inactive) in the experiment with SNB-19; > 100 µM in the experiment on HCT-15; 42 µM (inactive) in the experiment with OVCAR-4; > 100 µM (inactive) in the experiment on KM-20L2. Moreover, the GI50 in the experiment on SNB-78 was > 100 µM (inactive); with A498 it was > 100 µM (inactive); in the experiment with LXFL 529 it was 45.1 µM (inactive).

As to `COc1ccc(/N=C\c2cc(OC)c(OC)c(OC)c2)cc1`, the GI50 was 57.4 µM (inactive) in the experiment on DMS-114; > 100 µM (inactive) in the experiment with SK-MEL-28; > 100 µM (inactive) in the experiment with A549; > 100 µM (inactive) in the experiment on M19-MEL; > 100 µM (inactive) in the experiment on SK-MEL-2; > 100 µM (inactive) with SNB-19. Also, the GI50 with HCT-15 is 29.2 µM; in the experiment on OVCAR-4, > 100 µM (inactive); with KM-20L2 it was > 100 µM (inactive); in the experiment with SNB-78 it was > 100 µM (inactive); in the experiment with A498, > 100 µM (inactive); with XF498, > 100 µM (inactive). Further, the GI50 with LXFL 529 is 51.6 µM (inactive).

As to `CCCCCCCC(=O)OCC1OC(n2cc(F)c(=O)[nH]c2=O)C(NC(=O)OCc2ccccc2)C(OC(=O)CCCCCCC)C1O` (stereo not given), the GI50 in the experiment with DMS-114 was 24 µM (inactive); with CAKI-1, 19.2 µM (inactive); in the experiment on SK-MEL-28, 36.5 µM (inactive); with A549, 25.1 µM (inactive); in the experiment with M19-MEL, 23.6 µM (inactive); in the experiment on SK-MEL-2, 21.6 µM (inactive). The GI50 in the experiment with DMS-273 is 15.3 µM (inactive); in the experiment on SNB-19, 0.11 µM (active); in the experiment on HCT-15 it was 26.5 µM; in the experiment with OVCAR-4 it was 10.5 µM (inactive); in the experiment with KM-20L2 it was 34.7 µM (inactive); with SNB-78, 41.9 µM (inactive). For the same compound, the figures for the GI50 in the experiment with A498 and in the experiment on LXFL 529 were > 100 µM (inactive) and 21.3 µM (inactive), respectively.

Regarding `CC(C)(C)c1ccc(C(O)c2ccc(C(C)(C)C)cc2)cc1`, the GI50 in the experiment on DMS-114 was 12.7 µM (inactive); in the experiment with CAKI-1 it was 15.1 µM (inactive); in the experiment on SK-MEL-28, 16.8 µM (inactive); with A549 it was 14.2 µM (inactive); in the experiment on M19-MEL, 13.7 µM (inactive); in the experiment with SK-MEL-2 it was 15.2 µM (inactive). The GI50 with NCI-H226 was 4.72 µM (inactive); in the experiment with DMS-273, 12.6 µM (inactive); with SNB-19, 17.9 µM (inactive); in the experiment on HCT-15, 12.1 µM; in the experiment with OVCAR-4, 15.2 µM (inactive); in the experiment with KM-20L2 it was 17.7 µM (inactive). The values for the GI50 with A498, in the experiment with XF498 and with LXFL 529 were 18.7 µM (inactive), 15.1 µM (inactive) and 15.5 µM (inactive), respectively.

On to `O=C1NC2(CCCCC2)C2CCCCC(O)C12` (stereo not given), for which the GI50 in the experiment with DMS-114, in the experiment on CAKI-1, in the experiment on SK-MEL-28, with A549, with M19-MEL and in the experiment on SK-MEL-2 was > 100 µM (inactive) throughout. The GI50 in the experiment with NCI-H226 was > 100 µM (inactive); in the experiment on DMS-273, > 100 µM (inactive); with SNB-19, > 100 µM (inactive); with HCT-15 it was > 100 µM; in the experiment on KM-20L2, > 100 µM (inactive); in the experiment with SNB-78, > 100 µM (inactive). Besides, the GI50 in the experiment with A498 and with LXFL 529 was > 100 µM (inactive) in each case.

On to `O=C1N(C2CCCCC2)CC12CCCCC2`, for which the GI50 with DMS-114, with SK-MEL-28, in the experiment with A549, in the experiment on M19-MEL, in the experiment on SK-MEL-2 and with NCI-H226 was > 100 µM (inactive) each time. The GI50 with DMS-273 is > 100 µM (inactive); in the experiment with SNB-19, > 100 µM (inactive); with HCT-15, > 100 µM; with OVCAR-4, > 100 µM (inactive); in the experiment on KM-20L2, > 100 µM (inactive); in the experiment with SNB-78, > 100 µM (inactive). Besides, the GI50 in the experiment on A498 and in the experiment with XF498 was > 100 µM (inactive) in each case.

On to `CCOC(=O)CC[C@H](NC(=O)c1nc[nH]c1/N=N/N(C)C)C(=O)OCC`, for which the GI50 in the experiment with DMS-114, in the experiment on CAKI-1, in the experiment on SK-MEL-28, in the experiment with A549, in the experiment on M19-MEL and in the experiment on SK-MEL-2 was > 100 µM (inactive) each time. Moreover, the GI50 in the experiment on NCI-H226 is > 100 µM (inactive); in the experiment on DMS-273, > 100 µM (inactive); in the experiment on SNB-19 it was > 100 µM (inactive); in the experiment with HCT-15 it was > 100 µM; with OVCAR-4, > 100 µM (inactive); with A498 it was > 100 µM (inactive). Further, the results for the GI50 in the experiment with XF498 and in the experiment on LXFL 529 were 15.3 µM (inactive) and > 100 µM (inactive), respectively.

As for `CC(=O)OC1/C=C(\C)C(OC(C)=O)C/C=C(/C)CCC2C(/C=C/C1=O)C2(C)C` (stereo not given), the GI50 with SK-MEL-28, with A549, in the experiment with M19-MEL, in the experiment on SK-MEL-2, in the experiment on NCI-H226 and in the experiment on SNB-19 was > 100 µM (inactive) in each case. Also, the GI50 with HCT-15 was > 100 µM; with OVCAR-4, > 100 µM (inactive); in the experiment on KM-20L2 it was > 100 µM (inactive); in the experiment with SNB-78, > 100 µM (inactive); with A498 it was > 100 µM (inactive); in the experiment with XF498 it was 35.7 µM (inactive). For the same compound, the GI50 in the experiment with LXFL 529 was > 100 µM (inactive).

Take `COc1cccc(/C=C2\C(=O)N(C(=O)Cc3ccccc3)N=C2C)c1`: the GI50 in the experiment on DMS-114, with CAKI-1, with SK-MEL-28, in the experiment with A549, with M19-MEL and in the experiment on SK-MEL-2 was > 100 µM (inactive) each time. Also, the GI50 in the experiment on NCI-H226 was > 100 µM (inactive); in the experiment on DMS-273, > 100 µM (inactive); in the experiment with SNB-19 it was > 100 µM (inactive); with HCT-15 it was > 100 µM; in the experiment with OVCAR-4, > 100 µM (inactive); in the experiment with SNB-78, > 100 µM (inactive). Besides, the GI50 with XF498 is > 100 µM (inactive).

As to `CCC1=C(C(C)=O)[C@@H]2CCCCC(C(=O)OC)[C@@H]2C1=O` (stereo not given in full), the GI50 with DMS-114 was > 100 µM (inactive); in the experiment on CAKI-1, > 100 µM (inactive); in the experiment on SK-MEL-28, > 100 µM (inactive); in the experiment on A549, > 100 µM (inactive); with M19-MEL it was 79.4 µM (inactive); in the experiment with SK-MEL-2, > 100 µM (inactive). Further, the GI50 in the experiment on NCI-H226 was > 100 µM (inactive); in the experiment on DMS-273, > 100 µM (inactive); in the experiment on SNB-19, > 100 µM (inactive); in the experiment with HCT-15 it was > 100 µM; in the experiment with OVCAR-4, > 100 µM (inactive); with KM-20L2, > 100 µM (inactive). Further, the GI50 in the experiment on SNB-78, in the experiment with A498 and in the experiment with LXFL 529 was > 100 µM (inactive) throughout.
